Laboratory results from patent US20230085307A1, “PYRIDAZINONE COMPOUND AND HERBICIDE” (NISSAN CHEMICAL CORPORATION, priority 2019, published 2023).

Tests used:
false cleavers = test: Test Example 4: herbicidal effect by soil treatment (Table 19, symbol Q); format: in vivo, false cleavers (Galium spurium); conditions: amount of applied herbicide 320 g/ha
Procedure, shortened: (§1)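 Step 1: sow seeds in sterilized diluvial soil, cover ~1.5 cm. Step 2: spray diluted emulsion onto soil surface at predetermined rate. Step 3: greenhouse, 25–30° C, three weeks. Step 4: grade effect on each plant by earlier criteria.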

barnyard grass [1] = test: Test Example 5: herbicidal effect by foliage application, plastic box (Table 20, symbol H); format: in vivo, barnyard grass (Echinochloa crus-galli); conditions: foliage application, AAH 320 g/ha, three weeks after application
Procedure, shortened: (§2)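 Foliar spray test: emulsion formulation diluted in water to a set application rate, sprayed onto 14-day-old plants raised in diluvial soil at 25° C to 30° C under glass. Both herbicidal effect and crop effect rated visually three weeks later.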

green foxtail [2] = test: Test Example 5: herbicidal effect by foliage application, plastic box (Table 20, symbol G); format: in vivo, green foxtail (Setaria viridis); conditions: foliage application, AAH 320 g/ha, three weeks after application
Procedure, shortened: as §2

windgrass [3] = test: Test Example 5: herbicidal effect by foliage application, plastic box (Table 20, symbol L); format: in vivo, windgrass (Apera spica-venti); conditions: foliage application, AAH 320 g/ha, three weeks after application
Procedure, shortened: as §2

southern crabgrass [4] = test: Test Example 5: herbicidal effect by foliage application, plastic box (Table 20, symbol F); format: in vivo, southern crabgrass (Digitaria ciliaris); conditions: foliage application, AAH 320 g/ha, three weeks after application
Procedure, shortened: as §2

wheat [5] = test: Test Example 4: effect on crop by soil treatment (Table 19, symbol e); format: in vivo; conditions: amount of applied herbicide 320 g/ha
Procedure, shortened: as §1

corn [6] = test: Test Example 5: effect on crop by foliage application, plastic box (Table 20, symbol c); format: in vivo; conditions: AAH 320 g/ha, three weeks after application
Source text: (§3) [Test Example 5] Herbicidal Effect Test by Foliage Application
(§4) Sterilized diluvial soil was placed in a plastic box having a length of 21 cm, a width of 13 cm, and a depth of 7 cm. The seeds of each of southern crabgrass, green foxtail, barnyard grass, wild oat, blackgrass, Italian ryegrass, windgrass, velvetleaf, redroot pigweed, lambsquarters, chickweed, false cleavers, persian speedwell, corn, soybean, rice, wheat, beet, and rapeseed were sowed in a spot-like manner and covered with the soil having a thickness of about 1.5 cm. Thereafter, the plants were grown in a greenhouse at 25° C. to 30° C. After 14-day growth of the plants, the emulsion agent of the compound of the present invention prepared according to Formulation Example 2 was diluted with water so as to achieve a predetermined herbicide amount, and the diluted emulsion agent was uniformly applied to a foliage part with a small-sized spray. Three weeks after the herbicide application, the effect of the herbicide on each plant was evaluated according to the criteria of Test Example 1.

persian speedwell [7] = test: Test Example 5: herbicidal effect by foliage application, plastic box (Table 20, symbol R); format: in vivo, Persian speedwell (Veronica persica); conditions: foliage application, AAH 320 g/ha, three weeks after application
Procedure, shortened: as §2

persian speedwell [8] = test: Test Example 4: herbicidal effect by soil treatment (Table 19, symbol R); format: in vivo, Persian speedwell (Veronica persica); conditions: amount of applied herbicide 320 g/ha
Procedure, shortened: as §1

directly sowed rice = test: Test Example 3: effect on crop by foliage application, Wagner pot (Table 18, symbol b); format: in vivo; conditions: 320 g/ha
Procedure, shortened: (§5)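 Plants were sown in alluvial soil held under 0.1–0.5 cm standing water and grown 14 days in a greenhouse at 25–30 °C. An emulsifiable formulation, water-diluted to the set dose, was then sprayed onto the foliage, and effects were scored three weeks later using previously defined criteria.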

chickweed [9] = test: Test Example 5: herbicidal effect by foliage application, plastic box (Table 20, symbol P); format: in vivo, common chickweed (Stellaria media); conditions: foliage application, AAH 320 g/ha, three weeks after application
Procedure, shortened: as §2

Chinese sprangletop = test: Test Example 3: herbicidal effect by foliage application, Wagner pot (Table 18, symbol D); format: in vivo, chinese sprangletop (Leptochloa chinensis); conditions: 320 g/ha
Procedure, shortened: as §5

barnyard grass [10] = test: Test Example 3: herbicidal effect by foliage application, Wagner pot (Table 18, symbol H); format: in vivo, barnyard grass (Echinochloa crus-galli); conditions: 320 g/ha
Procedure, shortened: as §5

barnyard grass [11] = test: Test Example 4: herbicidal effect by soil treatment (Table 19, symbol H); format: in vivo, barnyard grass (Echinochloa crus-galli); conditions: amount of applied herbicide 320 g/ha
Procedure, shortened: as §1

soybean [12] = test: Test Example 4: effect on crop by soil treatment (Table 19, symbol d); format: in vivo; conditions: amount of applied herbicide 320 g/ha
Procedure, shortened: as §1

chickweed [13] = test: Test Example 4: herbicidal effect by soil treatment (Table 19, symbol P); format: in vivo, common chickweed (Stellaria media); conditions: amount of applied herbicide 320 g/ha
Procedure, shortened: as §1

Italian ryegrass [14] = test: Test Example 4: herbicidal effect by soil treatment (Table 19, symbol K); format: in vivo, Italian ryegrass (Lolium multiflorum); conditions: amount of applied herbicide 320 g/ha
Procedure, shortened: as §1

lambsquarters [15] = test: Test Example 5: herbicidal effect by foliage application, plastic box (Table 20, symbol O); format: in vivo, lambsquarters (Chenopodium album); conditions: foliage application, AAH 320 g/ha, three weeks after application
Procedure, shortened: as §2

redroot pigweed [16] = test: Test Example 4: herbicidal effect by soil treatment (Table 19, symbol N); format: in vivo, redroot pigweed (Amaranthus retroflexus); conditions: amount of applied herbicide 320 g/ha
Procedure, shortened: as §1

corn [17] = test: Test Example 4: effect on crop by soil treatment (Table 19, symbol c); format: in vivo; conditions: amount of applied herbicide 320 g/ha
Procedure, shortened: as §1

blackgrass [18] = test: Test Example 4: herbicidal effect by soil treatment (Table 19, symbol J); format: in vivo, blackgrass (Alopecurus myosuroides); conditions: amount of applied herbicide 320 g/ha
Procedure, shortened: as §1

velvetleaf [19] = test: Test Example 5: herbicidal effect by foliage application, plastic box (Table 20, symbol M); format: in vivo, velvetleaf (Abutilon theophrasti); conditions: foliage application, AAH 320 g/ha, three weeks after application
Procedure, shortened: as §2

blackgrass [20] = test: Test Example 5: herbicidal effect by foliage application, plastic box (Table 20, symbol J); format: in vivo, blackgrass (Alopecurus myosuroides); conditions: foliage application, AAH 320 g/ha, three weeks after application
Procedure, shortened: as §2

beet [21] = test: Test Example 4: effect on crop by soil treatment (Table 19, symbol f); format: in vivo; conditions: amount of applied herbicide 320 g/ha
Source text: [Test Example 4] Herbicidal Effect Test by Soil Treatment
as §4, with “Subsequently,” for “Thereafter, the plants were grown in a greenhouse at 25° C. to 30° C. After 14-day growth of the plants,”, “the surface of the soil” for “a foliage part”, “spray. The plastic box was placed in a greenhouse at 25° C. to 30° C. for growth of the plants.” for “spray.”

green foxtail [22] = test: Test Example 4: herbicidal effect by soil treatment (Table 19, symbol G); format: in vivo, green foxtail (Setaria viridis); conditions: amount of applied herbicide 320 g/ha
Procedure, shortened: as §1

lambsquarters [23] = test: Test Example 4: herbicidal effect by soil treatment (Table 19, symbol O); format: in vivo, lambsquarters (Chenopodium album); conditions: amount of applied herbicide 320 g/ha
Procedure, shortened: as §1

Italian ryegrass [24] = test: Test Example 5: herbicidal effect by foliage application, plastic box (Table 20, symbol K); format: in vivo, Italian ryegrass (Lolium multiflorum); conditions: foliage application, AAH 320 g/ha, three weeks after application
Procedure, shortened: as §2

redroot pigweed [25] = test: Test Example 5: herbicidal effect by foliage application, plastic box (Table 20, symbol N); format: in vivo, redroot pigweed (Amaranthus retroflexus); conditions: foliage application, AAH 320 g/ha, three weeks after application
Procedure, shortened: as §2

southern crabgrass [26] = test: Test Example 4: herbicidal effect by soil treatment (Table 19, symbol F); format: in vivo, southern crabgrass (Digitaria ciliaris); conditions: amount of applied herbicide 320 g/ha
Procedure, shortened: as §1

rapeseed [27] = test: Test Example 4: effect on crop by soil treatment (Table 19, symbol g); format: in vivo; conditions: amount of applied herbicide 320 g/ha
Procedure, shortened: as §1

wild oat [28] = test: Test Example 5: herbicidal effect by foliage application, plastic box (Table 20, symbol I); format: in vivo, wild oat (Avena fatua); conditions: foliage application, AAH 320 g/ha, three weeks after application
Procedure, shortened: as §2

beet [29] = test: Test Example 5: effect on crop by foliage application, plastic box (Table 20, symbol f); format: in vivo; conditions: AAH 320 g/ha, three weeks after application
Source text: as §3, §4

rapeseed [30] = test: Test Example 5: effect on crop by foliage application, plastic box (Table 20, symbol g); format: in vivo; conditions: AAH 320 g/ha, three weeks after application
Source text: as §3, §4

wheat [31] = test: Test Example 5: effect on crop by foliage application, plastic box (Table 20, symbol e); format: in vivo; conditions: AAH 320 g/ha, three weeks after application
Source text: as §3, §4

rice flat sedge = test: Test Example 3: herbicidal effect by foliage application, Wagner pot (Table 18, symbol E); format: in vivo, rice flat sedge (Cyperus iria); conditions: 320 g/ha
Procedure, shortened: as §5

wild oat [32] = test: Test Example 4: herbicidal effect by soil treatment (Table 19, symbol I); format: in vivo, wild oat (Avena fatua); conditions: amount of applied herbicide 320 g/ha
Procedure, shortened: as §1

velvetleaf [33] = test: Test Example 4: herbicidal effect by soil treatment (Table 19, symbol M); format: in vivo, velvetleaf (Abutilon theophrasti); conditions: amount of applied herbicide 320 g/ha
Procedure, shortened: as §1

windgrass [34] = test: Test Example 4: herbicidal effect by soil treatment (Table 19, symbol L); format: in vivo, windgrass (Apera spica-venti); conditions: amount of applied herbicide 320 g/ha
Procedure, shortened: as §1

soybean [35] = test: Test Example 5: effect on crop by foliage application, plastic box (Table 20, symbol d); format: in vivo; conditions: AAH 320 g/ha, three weeks after application
Procedure, shortened: as §2

Cc1nn(C)c(=O)c(-c2c(-n3cc(Cl)cn3)sc3ccccc23)c1O [Compound No. 1-097, 5-hydroxy-2,6-dimethyl-4-(2-(4-chloro-1H-pyrazol-1-yl)benzo[b]thiophen-3-yl)pyridazin-3(2H)-one]
herbicidal effect rating, Q: false cleavers (false cleavers): 0 (Herbicidal rate of 5% or less (almost no effect)) | H: barnyard grass, herbicidal effect (barnyard grass [1]): 0 (Herbicidal rate of 5% or less (almost no effect)) | G: green foxtail, herbicidal effect (green foxtail [2]): 0 (Herbicidal rate of 5% or less (almost no effect)) | L: windgrass, herbicidal effect (windgrass [3]): 0 (Herbicidal rate of 5% or less (almost no effect)) | F: southern crabgrass, herbicidal effect (southern crabgrass [4]): 0 (Herbicidal rate of 5% or less (almost no effect)) | effect rating on crop, e: wheat (wheat [5]): 0 (Herbicidal rate of 5% or less (almost no effect)) | c: corn, effect on crop (corn [6]): 0 (Herbicidal rate of 5% or less (almost no effect)) | melting point: 232 to 234 °C | R: persian speedwell, herbicidal effect (persian speedwell [7]): 0 (Herbicidal rate of 5% or less (almost no effect)) | herbicidal effect rating, R: persian speedwell (persian speedwell [8]): 0 (Herbicidal rate of 5% or less (almost no effect)) | effect on crop b (directly sowed rice), rating 0-5 (directly sowed rice): 0 (Herbicidal rate of 5% or less (almost no effect)) | P: chickweed, herbicidal effect (chickweed [9]): 5 (Herbicidal rate of 90% or more (almost completely withered)) | herbicidal effect on D (Chinese sprangletop), rating 0-5 (Chinese sprangletop): 0 (Herbicidal rate of 5% or less (almost no effect)) | herbicidal effect on H (barnyard grass), rating 0-5 (barnyard grass [10]): 0 (Herbicidal rate of 5% or less (almost no effect)) | herbicidal effect rating, H: barnyard grass (barnyard grass [11]): 0 (Herbicidal rate of 5% or less (almost no effect)) | effect rating on crop, d: soybean (soybean [12]): 0 (Herbicidal rate of 5% or less (almost no effect)) | herbicidal effect rating, P: chickweed (chickweed [13]): 0 (Herbicidal rate of 5% or less (almost no effect)) | herbicidal effect rating, K: Italian ryegrass (Italian ryegrass [14]): 0 (Herbicidal rate of 5% or less (almost no effect)) | O: lambsquarters, herbicidal effect (lambsquarters [15]): 0 (Herbicidal rate of 5% or less (almost no effect)) | herbicidal effect rating, N: redroot pigweed (redroot pigweed [16]): 1 (Herbicidal rate of 5% or more and less than 20%) | effect rating on crop, c: corn (corn [17]): 0 (Herbicidal rate of 5% or less (almost no effect)) | herbicidal effect rating, J: blackgrass (blackgrass [18]): 0 (Herbicidal rate of 5% or less (almost no effect)) | M: velvetleaf, herbicidal effect (velvetleaf [19]): 5 (Herbicidal rate of 90% or more (almost completely withered)) | J: blackgrass, herbicidal effect (blackgrass [20]): 0 (Herbicidal rate of 5% or less (almost no effect)) | effect rating on crop, f: beet (beet [21]): 0 (Herbicidal rate of 5% or less (almost no effect)) | herbicidal effect rating, G: green foxtail (green foxtail [22]): 0 (Herbicidal rate of 5% or less (almost no effect)) | herbicidal effect rating, O: lambsquarters (lambsquarters [23]): 4 (Herbicidal rate of 70% or more and less than 90%) | K: Italian ryegrass, herbicidal effect (Italian ryegrass [24]): 2 (Herbicidal rate of 20% or more and less than 40%) | N: redroot pigweed, herbicidal effect (redroot pigweed [25]): 3 (Herbicidal rate of 40% or more and less than 70%) | herbicidal effect rating, F: southern crabgrass (southern crabgrass [26]): 0 (Herbicidal rate of 5% or less (almost no effect)) | effect rating on crop, g: rapeseed (rapeseed [27]): 0 (Herbicidal rate of 5% or less (almost no effect)) | I: wild oat, herbicidal effect (wild oat [28]): 0 (Herbicidal rate of 5% or less (almost no effect)) | f: beet, effect on crop (beet [29]): 5 (Herbicidal rate of 90% or more (almost completely withered)) | g: rapeseed, effect on crop (rapeseed [30]): 5 (Herbicidal rate of 90% or more (almost completely withered)) | e: wheat, effect on crop (wheat [31]): 0 (Herbicidal rate of 5% or less (almost no effect)) | herbicidal effect on E (rice flat sedge), rating 0-5 (rice flat sedge): 4 (Herbicidal rate of 70% or more and less than 90%) | herbicidal effect rating, I: wild oat (wild oat [32]): 0 (Herbicidal rate of 5% or less (almost no effect)) | herbicidal effect rating, M: velvetleaf (velvetleaf [33]): 1 (Herbicidal rate of 5% or more and less than 20%) | herbicidal effect rating, L: windgrass (windgrass [34]): 0 (Herbicidal rate of 5% or less (almost no effect)) | d: soybean, effect on crop (soybean [35]): 0 (Herbicidal rate of 5% or less (almost no effect))
